Source: ChEMBL document CHEMBL1201862, “PubChem BioAssay data set” (2004)
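Where inhibition never reached the appropriate level, the endpoint shown equals the highest concentration tested. Otherwise, values were interpolated linearly from a five-concentration, 48-hour dose response in 96-well plates. At the GI50, growth is halved.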 Activity calls are given as the source filed them. Cut-off read from the data, not from the text of the source: active = GI50 up to about 1.1 µM and inactive = higher.

How the values were obtained:
Experiment in all cases: NCI tumour cell line growth inhibition, 48 h
[1] = test system: 786-0
[2] = test system: CCRF-CEM
[3] = test system: HCC 2998
[4] = test system: HOP-62
[5] = test system: HT-29
[6] = test system: Hs-578T
[7] = test system: KM12
[8] = test system: MDA-MB-231
[9] = test system: MDA-MB-435
[10] = test system: NCI-H226
[11] = test system: NCI/ADR-RES
[12] = test system: OVCAR-3
[13] = test system: OVCAR-5
[14] = test system: OVCAR-8
[15] = test system: SK-MEL-28
[16] = test system: SK-MEL-5
[17] = test system: SK-OV-3
[18] = test system: SNB-19
[19] = test system: SR
[20] = test system: U-251

Measured: GI50

NCCCCC(N)C(=O)NCCNc1ccc(NCCNC(=O)C(N)CCCCN)c2c1C(=O)c1ccccc1C2=O (stereo not given)
inactive: [1] 7.41 µM | [2] 31.9 µM | [3] 16.4 µM | [4] 9.46 µM | [5] 50.7 µM | [6] 8.38 µM | [7] > 81.3 µM | [8] 34 µM | [9] 98.6 µM | [10] > 21.7 µM | [11] 28.2 µM | [12] > 100 µM | [13] > 74.3 µM | [14] 5.9 µM | [15] > 100 µM | [16] > 100 µM | [17] 34.4 µM | [18] > 36.9 µM | [19] 4.91 µM | [20] 35 µM

O=C1C=C/C(=N/c2ccccc2)c2ccccc21
inactive: [1] 12.3 µM | [2] 4.29 µM | [3] 10.2 µM | [4] 11.2 µM | [5] 16.9 µM | [6] 3.74 µM | [7] 11.4 µM | [8] 1.9 µM | [9] 1.84 µM | [10] 11.4 µM | [11] 15.1 µM | [12] 1.89 µM | [13] 17.9 µM | [14] 11.3 µM | [15] 20.3 µM | [16] 1.31 µM | [17] 20.4 µM | [18] 21.8 µM | [19] 11.4 µM | [20] 7.82 µM

COc1cc(C(CN)N(C)C)cc(OC)c1OC (stereo not given)
inactive: [1] > 100 µM | [2] > 100 µM | [3] > 100 µM | [4] > 100 µM | [5] > 100 µM | [6] > 100 µM | [7] > 100 µM | [8] > 100 µM | [9] > 100 µM | [10] 29.6 µM | [11] > 100 µM | [12] > 100 µM | [13] > 100 µM | [14] > 100 µM | [15] > 100 µM | [16] > 100 µM | [17] > 100 µM | [18] > 100 µM | [19] 8.49 µM | [20] > 100 µM

N/N=C(\N)SCCCCCCCCCCS/C(N)=N/N
inactive: [1] 31.5 µM | [2] 17.2 µM | [3] 22.4 µM | [4] 40.5 µM | [5] 14.6 µM | [6] 30.8 µM | [7] 20 µM | [8] 20.4 µM | [9] 32.7 µM | [10] 27 µM | [11] 21.1 µM | [12] 19.7 µM | [13] 45.4 µM | [14] 16.8 µM | [15] 37.8 µM | [16] 21 µM | [18] 40.7 µM | [19] 13.2 µM | [20] 17.6 µM
active: [17] < 0.01 µM

CSc1nc(C)cc(Nc2ccc(O)c(CN3CCOCC3)c2)n1
inactive: [1] > 100 µM | [2] > 100 µM | [3] > 100 µM | [4] > 100 µM | [5] 76.9 µM | [6] > 100 µM | [7] > 100 µM | [8] > 100 µM | [9] > 100 µM | [10] > 100 µM | [11] > 100 µM | [12] > 100 µM | [13] > 100 µM | [14] > 100 µM | [15] > 100 µM | [16] 65 µM | [17] > 100 µM | [18] > 100 µM | [19] > 100 µM | [20] > 100 µM

Cc1nc(-c2ccc(/N=C/c3ccc(N(CCOS(C)(=O)=O)CCOS(C)(=O)=O)cc3C)cc2)cs1
inactive: [1] 13.8 µM | [2] 3.65 µM | [3] 30 µM | [4] 35.1 µM | [5] 30.3 µM | [6] 88.3 µM | [7] 32.1 µM | [8] 72.8 µM | [9] 72.9 µM | [10] 5.71 µM | [11] > 100 µM | [12] 30.8 µM | [13] 30.8 µM | [14] 51.9 µM | [15] 97.9 µM | [16] 11.4 µM | [17] 26.5 µM | [18] > 100 µM | [19] 9.51 µM | [20] 36.9 µM

COC(=O)c1c(O)ccc2c1c1cc3ccccc3c(O)c1n2CCc1ccc(OC)c(OC)c1
inactive: [1] 91.8 µM | [2] 30.1 µM | [3] 27.4 µM | [4] > 100 µM | [5] 1.79 µM | [6] 31.4 µM | [7] 51.3 µM | [8] > 100 µM | [9] 53.7 µM | [10] > 100 µM | [11] 51.6 µM | [12] 68.2 µM | [13] > 100 µM | [14] 63.4 µM | [15] 17.4 µM | [16] 26.2 µM | [17] > 100 µM | [18] > 100 µM | [19] 38.4 µM | [20] > 100 µM

Cc1ccc(S(=O)(=O)NC2C(=O)c3ccccc3C(=O)C2n2cnc3ccccc32)cc1 (stereo not given)
inactive: [1] 39.5 µM | [2] 53.1 µM | [4] 50.4 µM | [5] 28.1 µM | [6] 51.6 µM | [7] 9.4 µM | [8] 17.9 µM | [9] 18.6 µM | [10] 42.8 µM | [11] 22.1 µM | [12] 4.3 µM | [13] > 100 µM | [14] 29.4 µM | [15] 29.3 µM | [16] 13.1 µM | [17] 66.5 µM | [18] 27.4 µM | [19] 34.4 µM | [20] 26.1 µM
active: [3] 0.906 µM

Cc1ccc(C(=O)Oc2ccccc2)cc1/N=N/N(C)C
inactive: [1] > 100 µM | [2] 91.8 µM | [3] > 100 µM | [4] > 100 µM | [5] 37.1 µM | [6] > 100 µM | [7] 53.3 µM | [8] > 100 µM | [9] > 100 µM | [10] > 100 µM | [11] > 100 µM | [12] 43.4 µM | [13] > 100 µM | [14] > 100 µM | [15] > 100 µM | [16] > 100 µM | [17] > 100 µM | [18] > 92.3 µM | [19] > 100 µM | [20] > 100 µM

Cc1ccc(CC2(OCCN(C)C)CCC(C(C)(C)C)CC2)cc1 (stereo not given)
inactive: [1] 1.88 µM | [2] 2.65 µM | [3] 1.9 µM | [4] 2.55 µM | [5] 2.23 µM | [6] 8.04 µM | [7] 2.86 µM | [8] 5.56 µM | [9] 2.4 µM | [10] 5.28 µM | [11] 7.98 µM | [12] 11.9 µM | [13] 3.3 µM | [14] 9.4 µM | [15] 1.91 µM | [16] 1.58 µM | [17] 11.2 µM | [18] 5.28 µM | [19] 2.08 µM | [20] 2.41 µM

O=C(Oc1cccc2cccnc12)c1cc2cc(CCl)ccc2oc1=O
inactive: [1] 20.7 µM | [3] 20.3 µM | [4] 44.3 µM | [5] 8.09 µM | [6] 46.2 µM | [7] 24 µM | [8] 27.1 µM | [9] 10.8 µM | [10] 75.9 µM | [11] 4.18 µM | [12] 3.68 µM | [13] 31.5 µM | [14] 34 µM | [15] 30.1 µM | [16] 21.9 µM | [17] > 100 µM | [18] 43.7 µM | [19] 4.27 µM | [20] 24.3 µM
active: [2] 0.277 µM

CC(=O)O[C@H]1C(=O)[C@@]2(C)[C@H]([C@H](OC(=O)c3ccccc3)[C@]3(O)C[C@H](OC(=O)[C@H](O)[C@@H](NC(=O)c4ccccc4)c4ccccc4C)C(C)=C1C3(C)C)[C@]1(OC(C)=O)CO[C@@H]1C[C@@H]2O
inactive: [1] 1.64 µM | [8] 3.18 µM | [10] 1.71 µM | [11] > 25 µM | [14] 1.41 µM | [15] 1.55 µM | [18] 1.27 µM
active: [2] 0.376 µM | [3] 0.782 µM | [4] 0.326 µM | [5] 0.13 µM | [6] 0.222 µM | [7] 0.163 µM | [9] 0.07 µM | [12] 0.324 µM | [13] 0.843 µM | [16] 0.406 µM | [17] 1.02 µM | [19] 0.136 µM | [20] 0.361 µM

O=c1c(C(c2cc(OCc3ccccc3)cc(OCc3ccccc3)c2)c2c(O)oc3ccccc3c2=O)c(O)oc2ccccc12
inactive: [1] 8.63 µM | [2] 2.42 µM | [3] 3.91 µM | [4] 10.3 µM | [5] 4.15 µM | [6] 5.96 µM | [7] 4.19 µM | [8] 4.57 µM | [9] 4.83 µM | [10] 9.64 µM | [11] 17.6 µM | [12] 13.4 µM | [13] 11.8 µM | [14] 4.18 µM | [15] 12.7 µM | [16] 6.59 µM | [17] 6.58 µM | [18] 3.74 µM | [19] 3.28 µM | [20] 4.78 µM

CN/C(=N\CCSCc1nc[nH]c1C)NC#N [CIMETIDINE]
inactive: [1] > 100 µM | [2] > 100 µM | [3] > 100 µM | [4] > 100 µM | [5] > 100 µM | [6] > 100 µM | [7] > 100 µM | [8] > 100 µM | [9] > 100 µM | [10] > 100 µM | [11] > 100 µM | [12] > 100 µM | [13] > 100 µM | [14] > 100 µM | [15] > 100 µM | [16] > 100 µM | [17] > 100 µM | [18] > 100 µM | [19] > 100 µM | [20] > 100 µM
